Test results reported in article PMC4585835 (Scientific Reports, 2015).
Where two headings read alike, the source gives them in different places. Blank lines part the entries; values can stand above or below the molecule they belong to. Where a SMILES comes first, the peptide text is derived from it. Where no end group is shown, it is not given here. [ ]: non-standard residue; d: D form. The star is where a group is joined. Stearoyl = CCCCCCCCCCCCCCCCCC(=O)*

Legend:
[1] = molecular target: T1, rat thrombin (Rattus norvegicus, UniProt P18292); test: Inhibition of rat thrombin-catalyzed hydrolysis of Chromozym TH; format: biochemical; settings: 25 °C, pH 7.4
T1 construct: purchased Sigma

[2] = Bleeding time test (BT) in rats; format: in vivo, rat; settings: 30 min after administration
Procedure: Bleeding time was determined as reported previously. Male SD rats (180–220 g) were divided into 6 groups (n = 8). […] Thirty minutes after the injection, bleeding was induced by tail transection of the anesthetized rat with a size 21 disposable scalpel blade 2 mm from the tail tip. The bleeding tail was wiped with filter paper every 30 s, and the bleeding time was recorded when no blood was observed on the filter paper.

[3] = Pharmacokinetics in rats, i.v.; format: in vivo; settings: rat, 1 μmol/kg i.v., n = 5; for AUC(0-t): read-out: AUC(0-t) (converted); for MRT last: read-out: MRT0-t (converted); for Vd: read-out: Vss
Procedure: SD Rats were randomly divided into three groups (n = 5). […] All blood samples were immediately centrifuged at 5000 rpm for 5 min at room temperature, and the plasma obtained was stored at −20 °C before analysis. To the rat plasma (100 μL) was added 10 μL internal standard (80 ~ 100 ng/ml Carbamazepine), followed by mixing with 200 μL methanol with vortexing for 1 min. At this stage, certain amounts of proteins may precipitate out, thus this mixture was centrifuged at 12,000 rpm for 5 min at room temperature to achieve complete separation. The 20 μl supernatant was injected into a HPLC (Symbiosis, Spark, Holland; column: 50 mm × 2.1 mm, 5 μm, Agilent Eclipse Plus) –MS/MS system (ABI 4000 Q-Trap triple quadrupole mass spectrometer) equipped with electrospray ionization (ESI) source in the positive ion mode (Foster City, USA). The HPLC elution gradient was as follows: 0–0.5 min, 5–5% (B); 0.5–3 min, 5–95% (B); 3–4 min, 95–95% (B); 4–4.06 min, 95–5% (B); 4.06–6 min, 5–5% (B); the flow-rate was 0.4 ml/min; A was 0.1% formic acid/Waterl, B was 0.1% formic acid/methanol. The MS parameters were: CUR10Psi; Ion Spray Voltage (IS) 5500v; Collision activated dissociation (CAD) High, Gas1 = 50 psi, Gas2 = 50 psi, TEM = 500 °C.
All three peptides remained stable in plasma during three freeze/thaw cycles, at room temperature for at least 2 h. The supernatant of plasma samples were also found to be stable for at least 24 h at 10 °C in the autosampler.
The statistical significance of the difference among pharmacokinetic parameters was determined using the mean comparison Student’s t-test, and the resulting P values were lower than 0.05, which is considered to be statistically significant.

[4] = molecular target: T2, trypsin (Bos taurus, UniProt P00760); test: Degradation mediated by trypsin (HPLC); format: in vitro ADME; settings: trypsin (119 ng/μL) in Tris-HCl buffer, pH 8.5, 119 μg/ml trypsin, peptide 0.79 mM, 37 °C, read-out: peptide intact after incubation with trypsin
T2 construct: purchased Roche Corp (Indianapolis, USA)
T2 sequence (P00760 24-246): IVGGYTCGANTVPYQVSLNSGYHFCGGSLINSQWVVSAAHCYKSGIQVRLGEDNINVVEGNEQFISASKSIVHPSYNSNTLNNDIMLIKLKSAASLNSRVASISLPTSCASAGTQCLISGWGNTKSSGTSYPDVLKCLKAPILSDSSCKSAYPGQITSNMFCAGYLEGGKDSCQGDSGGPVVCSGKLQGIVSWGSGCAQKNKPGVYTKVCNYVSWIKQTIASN
Source text: The degradation of peptides mediated by trypsin can be effectively monitored by HPLC analysis. […] The detector wavelength was set at 214 nm.

[5] = molecular target: T3, human thrombin (Homo sapiens, UniProt P00734); test: Degradation mediated by human thrombin (HPLC); format: in vitro ADME; settings: human thrombin (69 NIH/mL) in Tris-HCl buffer, pH 8, 69 NIH/ml human thrombin, peptide 0.41 mM, 37 °C, read-out: peptide remained after reaction with human thrombin
T3 construct: purchased National Institute for the Control of Pharmaceutical and Biological Products (Beijing, China)
Procedure: The catalytic cleavage of peptides mediated by thrombin was also examined using the same method. Specifically, a peptide solution (0.41 mM) was first incubated with thrombin (69 NIH/mL) in Tris-HCl buffer (70 mM Tris HCl, NaCl 50 mM, pH = 8.0) at 37 °C.

[6] = molecular target: T3, human thrombin; test: Inhibition of human thrombin-catalyzed hydrolysis of Chromozym TH; format: biochemical; settings: 25 °C, pH 7.4
Procedure: The inhibition constant (Ki) was determined as reported previously. A 0.05 mL of peptide solution (concentration 10, 25, 50, 100, 150, 500 and 1000 nM, respectively) was added to 0.4 mL mixture of Hepes buffer (10 mM Hepes, 10 mM Tris, 0.1 M NaCl, 0.1% PEG 6000, pH 7.4) and bovine or human thrombin (0.25 NIH). The resulting solution was incubated at 25 °C for 2 min, followed by the addition of 0.05 mL Chromozym TH (concentration 25, 33, 40, 50, 100, 125, 200, 330, 500, and […], respectively). The absorbance at 405 nm was measured using a Beckman DU640 spectrometer. The inhibition constant (Ki) was determined using the following equation (Eq.1) originally developed for competitive inhibition processes[25]:
Herein, S is the initial substrate concentration; I is the inhibitor concentration; v is the initial steady-state velocity; Vmax is the limiting maximal velocity; and Km is the dissociation constant of the complex.

[7] = test system: Trypsin (modified sequencing grade); test: trypsin (119 ng/μL) in the Tris-HCl buffer (90 mM, pH = 8.5); settings: 37 °C, up to 5 h
[8] = test system: human thrombin; test: thrombin (69 NIH/mL) in Tris-HCl buffer (70 mM Tris HCl, NaCl 50 mM, pH = 8.0); settings: 37 °C, up to 5 h

Molecule: CC[C@H](C)[C@H](NC(=O)[C@H](CCC(=O)O)NC(=O)[C@H](CCC(=O)O)NC(=O)[C@H](Cc1ccccc1)NC(=O)[C@H](CC(=O)O)NC(=O)CNC(=O)[C@H](CC(N)=O)NC(=O)CNC(=O)CNC(=O)CNC(=O)CNC(=O)[C@@H]1CCCN1C(=O)[C@H](CCCNC(=N)N)NC(=O)[C@@H]1CCCN1C(=O)[C@H](N)Cc1ccccc1)C(=O)N1CCC[C@H]1C(=O)N[C@@H](CCC(=O)O)C(=O)N[C@@H](CCC(=O)O)C(=O)N[C@@H](Cc1ccc(O)cc1)C(=O)N[C@@H](CC(C)C)C(=O)O [Hirulog-1, reference compound]
Ki [1]: 20.5 ± 0.62 nM
bleeding time (BT) ([2]; 8 mg/kg): 525.00 ± 48.11 s
AUC(0-inf) ([3]; SD, plasma, iv, 1 umol/kg): 0.415 µM·h
Cmax ([3]; SD, plasma, iv, 1 umol/kg): 3100 ± 1100 nM
clearance ([3]; SD, plasma, iv, 1 umol/kg): 42.6 ± 5.2 mL/min/kg
AUC(0-t) ([3]; SD, plasma, iv, 1 umol/kg): 0.395 µM·h
MRT last ([3]; SD, plasma, iv, 1 umol/kg): 12.1 min
Vd ([3]; SD, plasma, iv, 1 umol/kg): 0.522 ± 0.151 L/kg
remaining at 3 h, 0.79 mM [4]: 10%
remaining at 5 h, 0.79 mM [4]: 6%
remaining at 3 h, 0.41 mM [5]: 57%
remaining at 5 h, 0.41 mM [5]: 23%

Molecule: CC[C@H](C)[C@H](NC(=O)[C@@H]1CCCN1C(=O)[C@H](CCC(=O)O)NC(=O)[C@H](Cc1ccccc1)NC(=O)[C@H](CC(=O)O)NC(=O)CNC(=O)[C@H](CCC(N)=O)NC(=O)CNC(=O)CNC(=O)CNC(=O)CNC(=O)[C@@H]1CCCN1C(=O)[C@H](CCCNC(=N)N)NC(=O)[C@@H]1CCCN1C(=O)[C@H](N)Cc1ccccc1)C(=O)N1CCC[C@H]1C(=O)N[C@@H](CCC(=O)O)C(=O)N[C@@H](CC(=O)O)C(=O)N[C@@H](C)C(=O)N[C@@H](Cc1ccc(O)cc1)C(=O)N[C@@H](CC(=O)O)C(=O)N[C@@H](CCC(=O)O)C(N)=O [Peptide 1] (H-[dF]PRPGGGGQGDFEPIPEDAYDE-NH2)
Ki [1]: 13.4 ± 0.46 nM
AUC(0-inf) ([3]; SD, plasma, iv, 1 umol/kg): 0.432 µM·h
AUC(0-t) ([3]; SD, plasma, iv, 1 umol/kg): 0.428 µM·h
Cmax ([3]; in vivo, iv, 1 umol/kg): 2300 ± 400 nM
clearance ([3]; in vivo, iv, 1 umol/kg): 36.4 ± 3.6 mL/min/kg
MRT last ([3]; in vivo, iv, 1 umol/kg): 13.9 min
Vd ([3]; in vivo, iv, 1 umol/kg): 0.504 ± 0.0217 L/kg
T1/2 [3]: 13.5 ± 2.6 min
half-life ([3]; in vivo, iv, 1 umol/kg): < 16 min
remaining at 3 h, 0.79 mM [4]: 5%
remaining at 5 h, 0.79 mM [4]: 1%
remaining at 3 h, 0.41 mM [5]: 70%
remaining at 5 h, 0.41 mM [5]: 46%

Molecule: CCCCCCCCCCCCCCCCCC(=O)NCCCC[C@H](NC(=O)[C@@H]1CCCN1C(=O)[C@H](CCCNC(=N)N)NC(=O)[C@@H]1CCCN1C(=O)[C@H](N)Cc1ccccc1)C(=O)NCC(=O)NCC(=O)NCC(=O)N[C@@H](CCC(N)=O)C(=O)NCC(=O)N[C@@H](CC(=O)O)C(=O)N[C@@H](Cc1ccccc1)C(=O)N[C@@H](CCC(=O)O)C(=O)N1CCC[C@H]1C(=O)N[C@H](C(=O)N1CCC[C@H]1C(=O)N[C@@H](CCC(=O)O)C(=O)N[C@@H](CC(=O)O)C(=O)N[C@@H](C)C(=O)N[C@@H](Cc1ccc(O)cc1)C(=O)N[C@@H](CC(=O)O)C(=O)N[C@@H](CCC(=O)O)C(N)=O)[C@@H](C)CC [Peptide S1] (H-[dF]PRPK(Stearoyl)GGGQGDFEPIPEDAYDE-NH2; N-terminus assumed)
Ki [1]: 37.4 ± 1.16 nM
Ki [6]: 19.5 ± 0.4 nM

Molecule: CCCCCCCCCCCCCCCCCC(=O)NCCCC[C@H](NC(=O)CNC(=O)CNC(=O)CNC(=O)[C@@H]1CCCN1C(=O)[C@H](CCCNC(=N)N)NC(=O)[C@@H]1CCCN1C(=O)[C@H](N)Cc1ccccc1)C(=O)N[C@@H](CCC(N)=O)C(=O)NCC(=O)N[C@@H](CC(=O)O)C(=O)N[C@@H](Cc1ccccc1)C(=O)N[C@@H](CCC(=O)O)C(=O)N1CCC[C@H]1C(=O)N[C@H](C(=O)N1CCC[C@H]1C(=O)N[C@@H](CCC(=O)O)C(=O)N[C@@H](CC(=O)O)C(=O)N[C@@H](C)C(=O)N[C@@H](Cc1ccc(O)cc1)C(=O)N[C@@H](CC(=O)O)C(=O)N[C@@H](CCC(=O)O)C(N)=O)[C@@H](C)CC [Peptide S3] (H-[dF]PRPGGGK(Stearoyl)QGDFEPIPEDAYDE-NH2; N-terminus assumed)
Ki [1]: 54.5 ± 0.82 nM
Ki [6]: 11 ± 0.15 nM

cleaved bond [7]: Arg-Pro
cleaved bond [8]: Arg-Pro
Molecule: D-FPRP-GGGG-QGDFEEIPEEYL

cleaved bond [7]: Arg-Pro
cleaved bond [8]: Arg-Pro
Molecule: D-FPRP-GGGG-QGDFEPIPEDAYDE^*

cleaved bond [7]: Arg-Pro
cleaved bond [8]: Arg-Pro
Molecule: D-FPRP-GK(stearic acid)GG-QGDFEPIPEDAYDE^* ([dF]PRPGK(Stearoyl)GGQGDFEPIPEDAYDE-NH2)

Molecule: heparin [reference compound]
bleeding time (BT) ([2]; 200 IU/kg): 401 ± 83.23 s
